Data published in US20030236223A1, “Metastasis modulating activity of highly sulfated oligosaccharides” (Greenville Hospital System, priority 2002, published 2003).

Legend:
[1] = tested on: murine B16 melanoma cells; test: B16 murine melanoma cell proliferation (Promega Cell Titer 96 AQueous assay); type: cell-based; settings: 48 hours incubation, 0-90 micrograms/ml, FIG. 1
Description: 5000 cells/well of murine B16 melanoma cells were plated in a 96-well plate and incubated for 48 hours with varying concentrations of cyclodextrin tetradecasulfate (0-90 micrograms/ml). Non-radioactive assay solution was prepared according to manufacturer's protocol (Promega Cell Titer 96 AQueous Assay Reagents). Cells were read using a Biorad benchmark microplate reader 2 hours after the assay solution was added to the well.

[2] = tested on: lung metastasis; test: Lung metastasis in tumorigenic mice treated via drinking water; type: in vivo; settings: C57B1-6 mice, 10 mg/ml in drinking water for two weeks, FIG. 2
Description: C57B1-6 mice (n=2) were treated with 10 mg/ml β-cyclodextrin tetradecasulfate in their drinking water for two weeks. The control animal (n=2) was given cyclodextrin-free drinking water.

Question: How did the cell proliferation [1] turn out when β-cyclodextrin tetradecasulfate was run?
Answer: cell proliferation decreases

Question: And the “lung metastasis compared to the control animal” value [2]?
Answer: ⅓ fewer lung metastasis
